# Key:
# Assay type in all cases: in vivo
# [1] = test system: New Zealand rabbits; experiment: male and female anaesthetised rabbit, pelvic nerve stimulation
# Method: 1.1.1 Male and Female Anaesthetised Rabbit Methodology
# Male and female New Zealand rabbits (˜2.5 kg) were pre-medicated with a combination of Medetomidine (Domitor®) 0.5 ml/kg i.m., and Ketamine (Vetalar®) 0.25 ml/kg i.m. whilst maintaining oxygen intake via a face mask. The rabbits were tracheotomised using a Portex™ uncuffed endotracheal tube 3 ID., connected to ventilator and maintained at a ventilation rate of 30-40 breaths per minute, with an approximate tidal volume of 18-20 ml, and a maximum airway pressure of 10 cm H2O. Anaesthesia was then switched to Isoflurane and ventilation continued with O2 at 2 l/min. The right marginal ear vein was cannulated using a 23 G or 24 G catheter, and Lactated Ringer solution perfused at 0.5 ml/min. The rabbit was maintained at 3% Isoflurane during invasive surgery, dropping to 2% for maintenance anaesthesia. The left jugular vein was exposed, isolated and then cannulated with a PVC catheter (17 G) for the infusion of drugs and compounds.
# The left groin area of the rabbit was shaved and a vertical incision was made approximately 5 cm in length along the thigh. The femoral vein and artery were exposed, isolated and then cannulated with a PVC catheter (17 G) for the infusion of drugs and compounds. Cannulation was repeated for the femoral artery, inserting the catheter to a depth of 10 cm to ensure that the catheter reached the abdominal aorta. This arterial catheter was linked to a Gould system to record blood pressure. Samples for blood gas analysis were also taken via the arterial catheter. Systolic and diastolic pressures were measured, and the mean arterial pressure calculated using the formula (diastolic×2+systolic)÷3. Heart rate was measured via the pulse oxymeter and Po-ne-mah data acquisition software system (Ponemah Physiology Platform, Gould Instrument Systems, Inc.).
# A ventral midline incision was made into the abdominal cavity. The incision was about 5 cm in length just above the pubis. The fat and muscle was bluntly dissected away to reveal the hypogastric nerve which runs down the body cavity. It was essential to keep close to the side curve of the pubis wall in order to avoid damaging the femoral vein and artery which lie above the pubis. The sciatic and pelvic nerves lie deeper and were located after further dissection on the dorsal side of the rabbit. Once the sciatic nerve is identified, the pelvic nerve was easily located. The term pelvic nerve is loosely applied; anatomy books on the subject fail to identify the nerves in sufficient detail. However, stimulation of the nerve causes an increase in vaginal and clitoral blood flow in females and in intracavernosal pressure and cavernosal blood flow in males, and innervation of the pelvic region. […]
# [2] = test system: telemetry rats; experiment: rat telemetry model of erection (intracavernosal pressure)
# Method: Erectile responses were recorded by measuring intracavernosal pressure and/or clitoral/vaginal blood flow using surgically implanted telemetric device. The specific details of the surgical procedures, data acquisition and analysis can be found in detail in Bernabe J, Rampin O, Sachs B D, Giuliano F. Intracavernous pressure during erection in rats: an integrative approach based on telemetric recording. Am. J. Physiol.
# [3] = test system: anaesthetised dog; experiment: haemodynamics in the anaesthetised dog; settings: for effect on mean blood pressure / effect on total vascular resistance (TVR; TPR) / effect on cardiac output and heart rate: s.c., hydrochloride; for effect on mean blood pressure / effect on total vascular resistance (TVR; TPR): doses up to 3000 μg/kg
# Text: Male beagles were anaesthetised with a mixture of chloralose and urethane, following pre-medication with piritramide. They were instrumented to measure arterial blood pressure, cardiac output, E.C.G., pudendal artery blood flow (PAF) and intra-cavernosal pressure (ICP). Other parameters such as heart rate and vascular resistance were derived from the primary signals. Following a period of equilibration, a series of control readings were taken and the effects of pelvic nerve stimulation at 4 and 8 Hz, on ICP and PAF were measured. Compounds were administered subcutaneously in the dorsal neck region via an implanted catheter, in the dose range of 0.3-3000 μg(base)/kg. Following each dose, parameters were measured at fixed intervals for 30 min.
# Results were analysed as percent change from the final control values for each dog and mean values for three dogs were used.
# [4] = at 3000 μg/kg, haemodynamic study
smiles,measurement,setting,value
"CCCN1CCO[C@H](c2cccc(O)c2)C1.Cl [Example 8, R-(−)-3-(4-Propylmorpholin-2-yl)phenol hydrochloride]",penile intracavernosal pressure and cavernosal blood flow in male rabbits,[1],beneficially enhanced
same,vaginal and clitoral blood flow in female rabbits,[1],beneficially enhanced
same,erections/10 minutes in the telemetry rat,[2]; 10 μg/kg s.c.,2.25±0.25 erections/10 minutes
same,free plasma concentration at which prosexual effects were observed,"[2]; rat telemetry model, FIG. 1",circa 1 nM
same,free plasma concentration of the corresponding samples,[3]; [4],2700 nM
same,free plasma concentration relative to the D3 EC50,[3]; [4],approximately 270 fold
same,Geometric mean ED30 (fall in TPR),"[3]; dog, in vivo",No effect
same,effect on mean blood pressure,[3],No significant effect
same,effect on total vascular resistance (TVR; TPR),[3],No significant effect
same,effect on mean blood pressure,[3]; listed as selective D3 agonist,no significant effects
same,effect on total vascular resistance (TVR; TPR),[3]; listed as selective D3 agonist,no significant effects
same,effect on cardiac output and heart rate,[3],no significant effect
same,effect on cardiac output and heart rate,[3]; listed as selective D3 agonist,no significant effects
